Legend:
[1] = tested on: Human immunodeficiency virus 1; assay: Antiviral activity against HIV1 harboring L100I mutant infected in human MT4 cells assessed as reduction in virus induced cytopathic effect incubated for 5 days by Spectrophotometric based MTT assay; format: functional, organism-based; details: Human immunodeficiency virus 1, MT4, 120 h
[2] = tested on: Human immunodeficiency virus 1; assay: Antiviral activity against HIV1 harboring K103 N mutant infected in human MT4 cells assessed as reduction in virus induced cytopathic effect incubated for 5 days by Spectrophotometric based MTT assay; format: functional, organism-based; details: Human immunodeficiency virus 1, MT4, 120 h
[3] = tested on: Human immunodeficiency virus 1; assay: Antiviral activity against HIV1 harboring Y181C mutant infected in human MT4 cells assessed as reduction in virus induced cytopathic effect incubated for 5 days by Spectrophotometric based MTT assay; format: functional, organism-based; details: Human immunodeficiency virus 1, MT4, 120 h
[4] = tested on: Human immunodeficiency virus 1; assay: Antiviral activity against HIV1 harboring Y188L mutant infected in human MT4 cells assessed as reduction in virus induced cytopathic effect incubated for 5 days by Spectrophotometric based MTT assay; format: functional, organism-based; details: Human immunodeficiency virus 1, MT4, 120 h
[5] = tested on: Human immunodeficiency virus 1; assay: Antiviral activity against HIV1 harboring F227L/V106A mutant infected in human MT4 cells assessed as reduction in virus induced cytopathic effect incubated for 5 days by Spectrophotometric based MTT assay; format: functional, organism-based; details: Human immunodeficiency virus 1, MT4, 120 h
[6] = Selectivity index, ratio of CC50 for cytotoxicity against human MT4 cells to EC50 for antiviral activity against HIV1 RES056 mutant infected in human MT4 cells
MT4 = assay: Cytotoxicity against human MT4 cells assessed as reduction in cell viability incubated for 5 days by Spectrophotometric based MTT assay; format: functional; details: MT4, 120 h, time 5 day
[7] = tested on: Human immunodeficiency virus 1; assay: Antiviral activity against HIV1 harboring E138K mutant infected in human MT4 cells assessed as reduction in virus induced cytopathic effect incubated for 5 days by Spectrophotometric based MTT assay; format: functional, organism-based; details: Human immunodeficiency virus 1, MT4, 120 h
[8] = tested on: Human immunodeficiency virus 1; assay: Antiviral activity against HIV1 harboring RES056 mutant infected in human MT4 cells assessed as reduction in virus induced cytopathic effect incubated for 5 days by Spectrophotometric based MTT assay; format: functional, organism-based; details: Human immunodeficiency virus 1, RES056, MT4, 120 h
[9] = Selectivity index, ratio of CC50 for cytotoxicity against human MT4 cells to EC50 for antiviral activity against wild type HIV1 IIIB infected in human MT4 cells
[10] = tested on: Human immunodeficiency virus 1; assay: Antiviral activity against wild type HIV1 IIIB infected in human MT4 cells assessed as reduction in virus induced cytopathic effect incubated for 5 days by Spectrophotometric based MTT assay; format: functional, organism-based; details: Human immunodeficiency virus 1, IIIB, MT4, 120 h

SMILES | EC50 [1] [nM] | EC50 [2] [nM] | EC50 [3] [nM] | EC50 [4] [nM] | EC50 [5] [nM] | selectivity ratio ([6]; MT4 cells) | CC50 (MT4) [nM] | EC50 [7] [nM] | EC50 [8] [nM] | selectivity ratio ([9]; MT4 cells) | EC50 [10] [nM] | selectivity ratio ([6]; mt4) | selectivity ratio ([9]; mt4)
Cc1cc(/C=C/C#N)cc(C)c1Oc1ccnc(Nc2ccc(N3CC(F)C3)c(C#N)c2)n1 | 48 | 10 | 49 | > 170000 | 330 | 328 | 170000 | 63 | 520 | 20000 | 9 |  | 
Cc1cc(/C=C/C#N)cc(C)c1Oc1ccnc(Nc2ccc(N3CCC(S(C)(=O)=O)CC3)c(C#N)c2)n1 | 35 | 18 | 40 | 2830 | 65 | 8 | 6440 | 42 | 820 | 725 | 9 |  | 
COP(=O)(OC)N1CCN(c2ccc(Nc3nccc(Oc4c(C)cc(/C=C/C#N)cc4C)n3)cc2C#N)C(=O)C1 |  |  |  |  |  |  | 23200 |  | > 23200 | 94 | 250 |  | 
Cc1cc(/C=C/C#N)cc(C)c1Oc1ccnc(Nc2ccc(N3CCN(C=O)CC3)c(C#N)c2)n1 | 16 | 20 | 53 | 2980 | 98 | 17 | 15900 | 48 | 930 | 4350 | 4 |  | 
Cc1cc(/C=C/C#N)cc(C)c1Oc1ccnc(Nc2ccc(N3CCSCC3=O)c(C#N)c2)n1 |  |  |  |  |  | 49 | 45300 |  | 920 | 3410 | 13 |  | 
Cc1cc(/C=C/C#N)cc(C)c1Oc1ccnc(Nc2ccc(N3CCCC3)c(C#N)c2)n1 |  |  |  |  |  | 51 | 270000 |  | 5320 | 5010 | 54 |  | 
COC1CCN(c2ccc(Nc3nccc(Oc4c(C)cc(/C=C/C#N)cc4C)n3)cc2C#N)CC1 | 130 | 13 | 160 | 4860 | 150 |  | 6890 | 190 | > 6890 | 1080 | 6 |  | 
Cc1ccnc2c1NC(=O)c1cccnc1N2C1CC1 [NEVIRAPINE] | 3450 | 9010 | 4880 | > 15000 | > 15000 |  | > 15000 |  | > 15000 |  |  |  | 
CC(=O)N1CCN(c2ccc(Nc3nccc(Oc4c(C)cc(/C=C/C#N)cc4C)n3)cc2C#N)CC1 | 62 | 3 | 65 | > 6640 | 44 | 12 | 6640 | 30 | 550 | 1280 | 5 |  | 
Cc1cc(/C=C/C#N)cc(C)c1Oc1ccnc(Nc2ccc(N3CCC(C#N)CC3)c(C#N)c2)n1 | 230 | 13 | 130 | > 42100 | 290 | > 30 | > 42100 | 110 | 1390 | > 4560 | 9 |  | 
Cc1cc(/C=C/C#N)cc(C)c1Oc1ccnc(Nc2ccc(N3CCC(C(F)(F)F)CC3)c(C#N)c2)n1 |  |  |  |  |  | > 14 | > 241000 |  | 17600 | > 6100 | 40 |  | 
Cc1cc(/C=C/C#N)cc(C)c1Oc1ccnc(Nc2ccc(N3CCS(=O)(=O)CC3=O)c(C#N)c2)n1 | 83 | 3 | 140 | 18400 | 250 | 37 | 34000 | 130 | 910 | 8130 | 4 |  | 
Cc1cc(/C=C/C#N)cc(C)c1Oc1ccnc(Nc2ccc(N3CCC(F)(F)CC3)c(C#N)c2)n1 |  |  |  |  |  |  | > 257000 |  | 1270 | > 8290 | 31 |  | 
Cc1cc(/C=C/C#N)cc(C)c1Oc1ccnc(Nc2ccc(N3CC(C#N)C3)c(C#N)c2)n1 |  |  |  |  |  |  | > 44700 |  | > 44700 | > 3480 | 13 |  | 
Cc1cc(/C=C/C#N)cc(C)c1Oc1ccnc(Nc2ccc(N3CCCCC3)c(C#N)c2)n1 |  |  |  |  |  | > 62 | > 277000 |  | 4480 | > 6380 | 43 |  | 
Cc1cc(/C=C/C#N)cc(C)c1Oc1ccnc(Nc2ccc(N3CCOCC3=O)c(C#N)c2)n1 | 13 | 4 | 23 | 2600 | 330 | 191 | 26600 | 15 | 140 | 9540 | 3 |  | 
COC1CN(c2ccc(Nc3nccc(Oc4c(C)cc(/C=C/C#N)cc4C)n3)cc2C#N)C1 |  |  |  |  |  |  | > 44200 |  | > 44200 | > 2050 | 22 |  | 
Cc1cc(/C=C/C#N)cc(C)c1Oc1ccnc(Nc2ccc(N3CCSCC3)c(C#N)c2)n1 | 21 | 6 | 40 | 3000 | 66 | > 596 | > 267000 | 49 | 450 | > 30300 | 9 |  | 
Cc1cn([C@H]2C[C@H](N=[N+]=[N-])[C@@H](CO)O2)c(=O)[nH]c1=O [ZIDOVUDINE] |  |  |  |  |  |  | > 7480 |  | 35 |  | 35 | > 214 | > 212
Cc1cc(C#N)cc(C)c1Oc1nc(Nc2ccc(C#N)cc2)nc(N)c1Br [ETRAVIRINE] |  | 5 |  | 35 | 28 |  | > 4590 | 25 | 81 |  |  |  | 
Cc1cc(/C=C/C#N)cc(C)c1Oc1ccnc(Nc2ccc(N3CCC(F)CC3)c(C#N)c2)n1 |  |  |  |  |  | > 181 | > 267000 |  | 1480 | > 18800 | 14 |  | 
O=C1Nc2ccc(Cl)cc2[C@@](C#CC2CC2)(C(F)(F)F)O1 [EFAVIRENZ] | 35 | 100 | 6 |  | 290 |  | > 6340 |  | 450 |  |  |  | 
Cc1cc(/C=C/C#N)cc(C)c1Oc1ccnc(Nc2ccc(N3CC[S+]([O-])CC3=O)c(C#N)c2)n1 (configuration not stated) |  |  |  |  |  | 9 | 26400 |  | 2810 | 1780 | 15 |  | 
Cc1cc(/C=C/C#N)cc(C)c1Oc1ccnc(Nc2ccc(N3CCN(C)CC3)c(C#N)c2)n1 |  |  |  |  |  |  | 3940 |  | > 3940 | 195 | 20 |  | 

Source: ChEMBL document CHEMBL6083236, “Identification of novel diarylpyrimidine derivatives as potent HIV-1 non-nucleoside reverse transcriptase inhibitors against wild-type and K103N mutant viruses” (Eur J Med Chem, 2024)
